Results from patent US20240270762A1, “PENICILLIN-BINDING PROTEIN INHIBITORS” (priority 2021, published 2024).
≈ marks a conversion by molar mass, not a printed value.

Assays:
[1] = target: T1, PBP2 from Neisseria gonorrhoeae (FA19) (Neisseria gonorrhoeae, UniProt P08149); experiment: Bocillin-FL fluorescence polarization competition binding, N. gonorrhoeae PBP2; conditions: fluorescence polarization competition binding assay using Bocillin-FL, read-out: N. gonorrhoeae PBP2 Potency
T1 construct: made in house
T1 sequence (P08149 whole entry): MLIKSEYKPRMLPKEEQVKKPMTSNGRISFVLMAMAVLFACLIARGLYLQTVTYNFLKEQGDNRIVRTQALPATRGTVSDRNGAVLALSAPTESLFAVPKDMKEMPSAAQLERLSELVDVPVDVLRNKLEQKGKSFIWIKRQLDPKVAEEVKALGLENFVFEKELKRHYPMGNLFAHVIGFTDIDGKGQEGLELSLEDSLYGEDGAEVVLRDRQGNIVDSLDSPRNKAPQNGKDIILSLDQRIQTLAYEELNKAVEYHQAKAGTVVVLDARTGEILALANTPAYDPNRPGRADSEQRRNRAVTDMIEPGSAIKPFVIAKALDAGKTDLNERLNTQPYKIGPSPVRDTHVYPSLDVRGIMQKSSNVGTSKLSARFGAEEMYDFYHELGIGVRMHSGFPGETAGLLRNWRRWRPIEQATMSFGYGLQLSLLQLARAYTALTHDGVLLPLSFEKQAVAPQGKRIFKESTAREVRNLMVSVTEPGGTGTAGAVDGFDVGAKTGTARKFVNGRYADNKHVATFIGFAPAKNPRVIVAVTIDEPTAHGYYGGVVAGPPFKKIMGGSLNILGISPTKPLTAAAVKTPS
How it was run: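 Fluorescence polarization competition with 0.1 μM Bocillin-FL (fluorescent penicillin V) against 0.25 μM N. gonorrhoeae FA19 PBP2 in 50 mM Hepes pH 8.0, 300 mM NaCl, 10% glycerol. Boronic acid inhibitors were preincubated with PBP, then Bocillin-FL was added and FP read (490/520 nm) up to 60 min. EC50 is the concentration halving PBP-bound Bocillin-FL.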

[2] = tested on: N. gonorrhoeae MS11; experiment: Liquid broth MIC in Fastidious broth; conditions: Neisseria gonorrhoeae, MS11, read-out: Minimum Inhibitory Concentration (MIC), N. gonorrhoeae MS11
[3] = tested on: N. gonorrhoeae WHO L; experiment: Liquid broth MIC in Fastidious broth; conditions: Neisseria gonorrhoeae, read-out: Minimum Inhibitory Concentration (MIC), N. gonorrhoeae WHO L
[4] = target: T2, PBP3 from Escherichia coli (K-12) (Escherichia coli, UniProt P0AD68); experiment: Bocillin-FL fluorescence polarization competition binding, E. coli PBP3
T2 construct: made in house
T2 sequence (P0AD68 1-577): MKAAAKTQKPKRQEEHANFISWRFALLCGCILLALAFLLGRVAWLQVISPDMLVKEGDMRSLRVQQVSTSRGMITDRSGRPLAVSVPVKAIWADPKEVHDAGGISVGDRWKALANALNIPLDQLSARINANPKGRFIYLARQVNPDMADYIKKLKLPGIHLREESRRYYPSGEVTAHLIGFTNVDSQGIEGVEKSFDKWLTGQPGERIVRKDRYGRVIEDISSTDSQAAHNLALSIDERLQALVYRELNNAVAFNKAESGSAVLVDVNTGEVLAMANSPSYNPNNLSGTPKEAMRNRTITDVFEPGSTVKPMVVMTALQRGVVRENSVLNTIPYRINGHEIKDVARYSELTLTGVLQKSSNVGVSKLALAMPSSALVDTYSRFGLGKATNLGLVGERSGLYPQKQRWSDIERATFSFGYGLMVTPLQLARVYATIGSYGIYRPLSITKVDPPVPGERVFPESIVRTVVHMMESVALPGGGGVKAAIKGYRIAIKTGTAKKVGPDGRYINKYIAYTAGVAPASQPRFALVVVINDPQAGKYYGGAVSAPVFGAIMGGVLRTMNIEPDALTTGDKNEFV
How it was run: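 Purified PBPs pre-incubated with inhibitor (E. coli PBP3 1.5 μM, 30 min; P. aeruginosa PBP3 0.75 μM, A. baumannii PBP1a 1 μM and PBP3 0.2 μM, 15 min), then Bocillin-FL 0.1 μM (0.05 μM for PBP1a) added; FP read up to 60 min. EC50 = concentration halving bound Bocillin-FL.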

Work on `O=C(O)c1c(F)ccc2c1OB(O)[C@@H](NC(=O)C(NC(=O)N1CCN(Cc3cc(F)c(O)c(O)c3Cl)C(=O)C1=O)c1ccc(P(=O)(O)O)cc1)C2` (stereo partly drawn) [Example 45, (3R)-3-(2-(4-(2-chloro-5-fluoro-3,4-dihydroxybenzyl)-2,3-dioxopiperazine-1-carboxamido)-2-(4-phosphonophenyl)acetamido)-7-fluoro-2-hydroxy-3,4-dihydro-2H-benzo[e][1,2]oxaborinine-8-carboxylic acid] yielded an EC50 [1] of less than 10 µM, an MIC [2] of less than 1 µg/mL and an MIC [3] of 4 to 8 µg/mL (≈ 5.31 to 10.6 µM). It also gave an EC50 [4] of less than 10 µM.
For `O=C(O)c1c(F)ccc2c1OB(O)[C@@H](NC(=O)C(NC(=O)N1CCN(Cc3ccc(O)c(O)c3Cl)C1=O)c1ccc(P(=O)(O)O)cc1)C2` (stereo partly drawn) [Example 46, (3R)-3-(2-(3-(2-chloro-3,4-dihydroxybenzyl)-2-oxoimidazolidine-1-carboxamido)-2-(4-phosphonophenyl)acetamido)-7-fluoro-2-hydroxy-3,4-dihydro-2H-benzo[e][1,2]oxaborinine-8-carboxylic acid], the EC50 [1] was less than 10 µM, the MIC [2] was less than 1 µg/mL and the MIC [3] was 4 to 8 µg/mL (≈ 5.66 to 11.3 µM). For the same molecule, the EC50 [4] was less than 10 µM.
`CS(=O)(=O)N1CCN(C(=O)NC(C(=O)N[C@H]2Cc3cccc(C(=O)O)c3OB2O)c2ccc(P(=O)(O)O)c(F)c2O)C1=O` (stereo partly drawn) [Example 48, (3R)-3-(2-(3-fluoro-2-hydroxy-4-phosphonophenyl)-2-(3-(methylsulfonyl)-2-oxoimidazolidine-1-carboxamido)acetamido)-2-hydroxy-3,4-dihydro-2H-benzo[e][1,2]oxaborinine-8-carboxylic acid] was tested, and the EC50 [1] was less than 10 µM, the MIC [2] was 1 to 2 µg/mL (≈ 1.55 to 3.1 µM) and the MIC [3] was 4 to 8 µg/mL (≈ 6.21 to 12.4 µM). For the same molecule, the EC50 [4] was 10 to 50 µM.
For `O=C(O)c1cccc2c1OB(O)[C@@H](NC(=O)C(NC(=O)N1CCCC1=O)c1ccc(P(=O)(O)O)cc1)C2` (stereo partly drawn) [Example 57, (3R)-2-hydroxy-3-(2-(2-oxopyrrolidine-1-carboxamido)-2-(4-phosphonophenyl)acetamido)-3,4-dihydro-2H-benzo[e][1,2]oxaborinine-8-carboxylic acid], the EC50 [1] was less than 10 µM, the MIC [2] was less than 1 µg/mL and the MIC [3] was 16 to 32 µg/mL (≈ 30.1 to 60.2 µM). For the same molecule, the EC50 [4] was 10 to 50 µM.
Work on `N#Cc1cccc(C(=O)N[C@@H](C(=O)N[C@H]2Cc3cccc(C(=O)O)c3OB2O)c2ccc(P(=O)(O)O)cc2)n1` [Example 180, (R)-3-((R)-2-(6-cyanopicolinamido)-2-(4-phosphonophenyl)acetamido)-2-hydroxy-3,4-dihydro-2H-benzo[e][1,2]oxaborinine-8-carboxylic acid] yielded an EC50 [1] of less than 10 µM, an MIC [2] of 1 to 2 µg/mL (≈ 1.82 to 3.63 µM) and an MIC [3] of 4 to 8 µg/mL (≈ 7.27 to 14.5 µM). It also gave an EC50 [4] of less than 10 µM.
In the case of `O=C(O)c1cccc2c1OB(O)[C@@H](NC(=O)C(NC(=O)c1ncccc1Cl)c1ccc(P(=O)(O)O)cc1)C2` (stereo partly drawn) [Example 183, (3R)-3-(2-(3-chloropicolinamido)-2-(4-phosphonophenyl)acetamido)-2-hydroxy-3,4-dihydro-2H-benzo[e][1,2]oxaborinine-8-carboxylic acid], the EC50 [1] is reported as less than 10 µM, the MIC [2] is reported as 4 to 8 µg/mL (≈ 7.15 to 14.3 µM) and the MIC [3] is reported as 16 to 32 µg/mL (≈ 28.6 to 57.2 µM). It also gave an EC50 [4] of 50 to 250 µM.
Molecule `O=C(NC(C(=O)N[C@H]1Cc2cccc(C(=O)O)c2OB1O)c1ccc(P(=O)(O)O)cc1)c1ccc(Cl)cn1` (stereo partly drawn) [Example 184, (3R)-3-(2-(5-chloropicolinamido)-2-(4-phosphonophenyl)acetamido)-2-hydroxy-3,4-dihydro-2H-benzo[e][1,2]oxaborinine-8-carboxylic acid] has an EC50 [1] of less than 10 µM, an MIC [2] of less than 1 µg/mL and an MIC [3] of 4 to 8 µg/mL (≈ 7.15 to 14.3 µM). The EC50 [4] was less than 10 µM.
Work on `NC(=O)c1ccc(C(=O)NC(C(=O)N[C@H]2Cc3cccc(C(=O)O)c3OB2O)c2ccc(P(=O)(O)O)cc2)nc1` (stereo partly drawn) [Example 188, (3R)-3-(2-(5-carbamoylpicolinamido)-2-(4-phosphonophenyl)acetamido)-2-hydroxy-3,4-dihydro-2H-benzo[e][1,2]oxaborinine-8-carboxylic acid] yielded an EC50 [1] of less than 10 µM, an MIC [2] of less than 1 µg/mL and an MIC [3] of 4 to 8 µg/mL (≈ 7.04 to 14.1 µM). For the same molecule, the EC50 [4] was 10 to 50 µM.
In the case of `CCN1CCN(C(=O)NC(C(=O)N[C@H]2Cc3cccc(C(=O)O)c3OB2O)c2ccc(S(=O)(=O)O)cc2)C(=O)C1=O` (stereo partly drawn) [Example 189, (3R)-3-(2-(4-ethyl-2,3-dioxopiperazine-1-carboxamido)-2-(4-sulfophenyl)acetamido)-2-hydroxy-3,4-dihydro-2H-benzo[e][1,2]oxaborinine-8-carboxylic acid], the EC50 [1] is reported as less than 10 µM, the MIC [2] is reported as less than 1 µg/mL and the MIC [3] is reported as 4 to 8 µg/mL (≈ 6.8 to 13.6 µM). The EC50 [4] was 10 to 50 µM.
